Experimental data from US20230255953A1, “USE OF ROLUPERIDONE IN PREVENTING RELAPSE IN SCHIZOPHRENIA PATIENTS” (Minerva Neurosciences, Inc., priority 2022, published 2023).

System: patients with negative symptoms of schizophrenia
Test: Integrated analysis of Studies #1 and #2 (pooled ITT): PANSS-derived scores (NSFS, total, positive and negative subscales), DB, OL and whole study
Assay type: in vivo, human
Parameters: key to NSFS Score change from Baseline, Median: change from Baseline in PANSS NSFS points; higher score = more severe
Method: The primary integrated analysis of the efficacy of Roluperidone compared with placebo for the treatment of negative symptoms of schizophrenia is based on the change from Baseline in the PANSS Marder's negative symptoms factor score (in this document referred to as NSFS) to Week 12. Efficacy is also supported by the analysis of change from Baseline in the PSP Total score and the CGI-S to Week 12.
The PANSS was assessed at the time points described in Table 4.
The PANSS-derived endpoints used in these studies and the integrated analyses are described in Table 5A and a summary of the individual PANSS items used by physicians and clinicians to measure the severity of the symptoms in a schizophrenia patient is provided in Table 5B. The scale is divided into three parts, a positive scale, which provides a “PANSS positive subscore”, a negative scale, which provides a “PANSS negative subscore”, and general psychopathology scale. The sum of these three parts provides a PANSS total score, which ranges from 30 to 210 (where higher scores indicate more severe symptoms). (See Kay, S. R., et al. “The positive and negative syndrome scale (PANSS) for schizophrenia,” Schizophr Bulletin, 13(2), 261-276 (1987) and Gopal, S., et al. “Improvement of Negative Symptoms in Schizophrenia with Paliperidone Palmitate 1-Month and 3-Month Long-Acting Injectables: Results from a Phase 3 Non-Inferiority Study” Neuropsychiatric Disease and Treatment, 681-690, DOI: 10.2147/NDT.5226296, both of which are incorporated by reference.)
The Efficacy data from Study Nos. 1 and 2 were pooled. The majority of patients in the pooled ITT population completed the DB period (502 patients overall, 66.3%), with similar rates in each treatment group (placebo: 69.8%, 32 mg Roluperidone: 65.3%, and 64 mg Roluperidone: 63.8%) (Table 12). The majority (62.7%) of those who completed the DB period entered the OL period. The most common reason for discontinuation during the DB period among patients overall was withdrawal of consent (15.6%), followed by adverse events (7.3%) and lack of efficacy (5.4%) (Table 12). […] Approximately twice as many patients in the Roluperidone groups (32 mg: 8.5%; 64 mg: 9.1%) discontinued due to adverse events compared with patients in the placebo group (4.3%). More patients in the placebo group discontinued due to lack of efficacy (6.7%) than in the Roluperidone groups (32 mg: 4.4%; 64 mg: 5.1%). The low number of patients who discontinued due to lack of efficacy or withdrawal of consent probably reflects a low level of worsening of positive symptoms.
The integrated analysis supporting the efficacy of Roluperidone as a treatment for the negative symptoms of schizophrenia in adults is presented below.

[1] = Placebo in DB to Roluperidone 32 mg in OL, pooled ITT
[2] = Placebo in DB to Roluperidone 64 mg in OL, pooled ITT
[3] = Placebo in DB to Roluperidone in OL, Total, pooled ITT
[4] = Roluperidone Total, Week 2, DB, pooled ITT
[5] = Roluperidone Total, Week 2, pooled ITT

Substance: 1H-Isoindol-1-one,2-[ [1-[2-(4-fluorophenyl)-2-oxoethyl]-4-piperidinyl]methyl]-2,3-dihydro-, hydrochloride, hydrate (1:1:2) [Roluperidone]
- Patients with moderate improvement in NSFS (magnitude of change 6-8) (64 mg, Week 12, pooled): 19%
- Patients with moderate or high improvement in NSFS, total (64 mg, Week 12, pooled): 32%
- NSFS, LS mean decrease from Baseline compared with placebo (64 mg, Week 12, pooled ITT): −3.9
- PANSS Positive Subscale Score change from Baseline, LS mean (SE) (64 mg, Week 12, pooled ITT): −0.2 (0.21)
- PANSS Positive Subscale Score change from Baseline, Mean (SD) (64 mg, Week 12, pooled ITT): −0.5 (2.88)
- PANSS Positive Subscale Score change from Baseline, Median (64 mg, Week 12, pooled ITT): 0.0
- PANSS Positive Subscale Score, Difference (95% CI) in LS mean (vs placebo) (64 mg, Week 12, pooled ITT): −0.4
- PANSS negative subscale score, LS mean change from Baseline compared with placebo (64 mg, Week 12, pooled ITT): −1.3
- PANSS positive subscale score, LS mean change from Baseline compared with placebo (64 mg, Week 12, pooled ITT): −0.4
- PANSS total score, LS mean change from Baseline compared with placebo (64 mg, Week 12, pooled ITT): −2.8
- Patients with 20% Reduction in NSFS at Week 12, percent (64 mg, responder analysis): 39%
- Patients with 20% Reduction in PANSS Total Score at Week 12, percent (64 mg, responder analysis): 19%
- Number of Patients with 20% Reduction in PANSS Total Score at Week 12 (64 mg, responder analysis, n/N): 34/176
- Number of Patients with 20% reduction in NSFS at Week 12 (64 mg, responder analysis, n/N): 68/176
- NSFS Change from Active BL to Week 24, Mean (SD) [1]: −2.1 (2.56)
- NSFS Change from Active BL to Week 24, Median [1]: −2.0
- NSFS Change from Active BL to Week 52, Mean (SD) [1]: −4.5 (3.60)
- NSFS Change from Active BL to Week 52, Median [1]: −4.0
- NSFS Change from Active BL to Week 54, Mean (SD) [1]: −4.7 (3.60)
- NSFS Change from Active BL to Week 54, Median [1]: −4.0
- NSFS Change from Open-label BL to Week 24, Mean (SD) [1]: −2.1 (2.56)
- NSFS Change from Open-label BL to Week 24, Median [1]: −2.0
- NSFS Change from Open-label BL to Week 52, Mean (SD) [1]: −4.5 (3.60)
- NSFS Change from Open-label BL to Week 52, Median [1]: −4.0
- NSFS Change from Open-label BL to Week 54, Mean (SD) [1]: −4.7 (3.60)
- NSFS Change from Open-label BL to Week 54, Median [1]: −4.0
- NSFS Change from Study BL to Week 24, Mean (SD) [1]: −5.3 (3.72)
- NSFS Change from Study BL to Week 24, Median [1]: −5.0
- NSFS Change from Study BL to Week 52, Mean (SD) [1]: −7.9 (3.69)
- NSFS Change from Study BL to Week 52, Median [1]: −8.0
- NSFS Change from Study BL to Week 54, Mean (SD) [1]: −7.9 (4.29)
- NSFS Change from Study BL to Week 54, Median [1]: −7.0
- NSFS Change from Active BL to Week 24, Mean (SD) [2]: −1.8 (3.55)
- NSFS Change from Active BL to Week 24, Median [2]: −2.0
- NSFS Change from Active BL to Week 52, Mean (SD) [2]: −4.9 (4.72)
- NSFS Change from Active BL to Week 52, Median [2]: −6.0
- NSFS Change from Active BL to Week 54, Mean (SD) [2]: −4.2 (4.78)
- NSFS Change from Active BL to Week 54, Median [2]: −5.0
- NSFS Change from Open-label BL to Week 24, Mean (SD) [2]: −1.8 (3.55)
- NSFS Change from Open-label BL to Week 24, Median [2]: −2.0
- NSFS Change from Open-label BL to Week 52, Mean (SD) [2]: −4.9 (4.72)
- NSFS Change from Open-label BL to Week 52, Median [2]: −6.0
- NSFS Change from Open-label BL to Week 54, Mean (SD) [2]: −4.2 (4.78)
- NSFS Change from Open-label BL to Week 54, Median [2]: −5.0
- NSFS Change from Study BL to Week 24, Mean (SD) [2]: −4.2 (3.38)
- NSFS Change from Study BL to Week 24, Median [2]: −4.0
- NSFS Change from Study BL to Week 52, Mean (SD) [2]: −7.0 (3.76)
- NSFS Change from Study BL to Week 52, Median [2]: −7.5
- NSFS Change from Study BL to Week 54, Mean (SD) [2]: −6.6 (4.15)
- NSFS Change from Study BL to Week 54, Median [2]: −7.0
- NSFS Change from Active BL to Week 24, Mean (SD) [3]: −1.9 (3.06)
- NSFS Change from Active BL to Week 24, Median [3]: −2.0
- NSFS Change from Active BL to Week 52, Mean (SD) [3]: −4.7 (4.17)
- NSFS Change from Active BL to Week 52, Median [3]: −5.0
- NSFS Change from Active BL to Week 54, Mean (SD) [3]: −4.4 (4.18)
- NSFS Change from Active BL to Week 54, Median [3]: −5.0
- NSFS Change from Open-label BL to Week 24, Mean (SD) [3]: −1.9 (3.06)
- NSFS Change from Open-label BL to Week 24, Median [3]: −2.0
- NSFS Change from Open-label BL to Week 52, Mean (SD) [3]: −4.7 (4.17)
- NSFS Change from Open-label BL to Week 52, Median [3]: −5.0
- NSFS Change from Open-label BL to Week 54, Mean (SD) [3]: −4.4 (4.18)
- NSFS Change from Open-label BL to Week 54, Median [3]: −5.0
- NSFS Change from Study BL to Week 24, Mean (SD) [3]: −4.8 (3.60)
- NSFS Change from Study BL to Week 24, Median [3]: −4.0
- NSFS Change from Study BL to Week 52, Mean (SD) [3]: −7.5 (3.72)
- NSFS Change from Study BL to Week 52, Median [3]: −8.0
- NSFS Change from Study BL to Week 54, Mean (SD) [3]: −7.3 (4.25)
- NSFS Change from Study BL to Week 54, Median [3]: −7.0
- NSFS Score change from Baseline, Mean (SD) [4]: −1.3 (2.25)
- NSFS Score change from Baseline, Median [4]: −1.0
- PANSS Negative Subscale Score change from Baseline, Mean (SD) [4]: −1.3 (2.20)
- PANSS Negative Subscale Score change from Baseline, Median [4]: −1.0
- PANSS Total Score change from Baseline, Mean (SD) [4]: −2.0 (6.89)
- PANSS Total Score change from Baseline, Median [4]: −2.0
- PANSS Positive Subscale Score change from Baseline, Mean (SD) [5]: 0.1 (2.78)
- PANSS Positive Subscale Score change from Baseline, Median [5]: 0.0
- NSFS Score change from Baseline, Mean (SD) (Roluperidone Total, Week 4, DB, pooled ITT): −2.4 (2.64)
